Experimental data: EPA's ToxValDB 9.5

Tests used:
Rattus norvegicus = settings: subchronic; duration: 90 days; oral; diet; M; Crl:CD(SD) BR; Body Weight Changes: Weight gain decrease + Absolute Organ Weight: Liver increase + Relative Organ Weight: Liver increase + Histopathology: …
Monkey = settings: short-term; duration: 29 days; oral; capsule; M; Cynomolgus; blood: basophils + blood: eosinophils + blood: lymphocytes + blood: monocytes + blood: reticulocytes + blood: segmented neutrophils + blood…
Labeo boga = settings: whole body
Bird = settings: subchronic, duration: 8 week, oral, drinking water, M, Japanese quail
Oryctolagus sp. = settings: acute, dermal; for LOAEL: duration: 1 days
Megascops sp. = settings: oral
Neovison sp. = settings: repeat dose other; oral; Mink
[1] = short-term, duration: 7 day, M, Medaka, liver IL-1Beta/Beta-actin mRNA ratio + liver IL-6/Beta-actin mRNA ratio
[2] = short-term, duration: 21 day, M/F, mRNA expression levels of IgM in spleen + mRNA expression levels of IL-1 beta in spleen + mRNA expression levels of myd88 in spleen

What does the source list for `O=C([O-])C(F)(F)C(F)(F)C(F)(F)C(F)(F)C(F)(F)C(F)(F)C(F)(F)F.[NH4+]` [Ammonium perfluorooctanoate]?
NOAEL (Rattus norvegicus): 0.096 mg/kg-day; NOEL (Monkey): 20 mg/kg-day; LOEL (Labeo boga; [1]): 50 mg/L; NOEL (Labeo boga; [1]): 10 mg/L; LOEL (Labeo boga; short-term, duration: 7 day, M, Medaka, liver TNF-alpha/Beta-actin mRNA ratio): 10 mg/L; LOEL (Labeo boga; short-term, duration: 15 day, M/F, Medaka, c-type lysozyme mRNA expression): 1 mg/L; NOEL (Labeo boga; short-term, duration: 15 day, M/F, Medaka, complement component C3-1 mRNA expression): 1 mg/L; LOEL (Labeo boga; short-term, duration: 21 day, M/F, Atlantic Salmon, cortisol): 0.1 mg/L; LOEL (Labeo boga; short-term, duration: 21 day, M/F, mRNA expression levels of IgD in spleen + mRNA expression levels of IgZ in spleen + mRNA expression levels of IL-21 in spleen + mRNA …): 0.05 mg/L; LOEL (Labeo boga; [2]): 0.1 mg/L; NOEL (Labeo boga; [2]): 0.05 mg/L; LOEL (Labeo boga; subchronic, duration: 48 day, M/F, Atlantic Salmon, cortisol): 0.1 mg/L; NOEL (Labeo boga; subchronic, duration: 48 day, M/F, Atlantic Salmon, fresh weight + length + thymus: thymus somatic index + thymus: thymus volume): 0.1 mg/L; LOEL (Labeo boga; subchronic, duration: 56 day, M/F, Atlantic Salmon, cortisol): 0.1 mg/L; LOEL (Bird; PHA skin test (DTH response)): 2.1 mg/kg-day; NOEL (Bird; PHA skin test (DTH response)): 0.2 mg/kg-day; NOEL (Bird; bacteremia (subsequent to E. coli challenge) + cellulitis (subsequent to E. coli challenge) + chemiluminescence of ROS produced by innate …): 2.1 mg/kg-day; LOAEL (Oryctolagus sp.; Albino, Ocular: Moderate eye irritation): 100 mg; LOAEL (Oryctolagus sp.; M, New Zealand, Death: 14-day LD50): 4300 mg/kg-day; NOAEL (Oryctolagus sp.; duration: 24 hours, Albino): 500 mg

Which results are given for `[F-].[Na+]` [Sodium fluoride]?
LOAEL (Megascops sp.): 32 mg/kg-day; NOAEL (Megascops sp.): 7.8 mg/kg-day; LOAEL (Neovison sp.): 52.8 mg/kg-day; NOAEL (Neovison sp.): 31.4 mg/kg-day
